Experimental data reported in ChEMBL document CHEMBL3351647, “Organochalcogen compounds from glycerol: synthesis of new antioxidants” (Bioorg Med Chem, 2014).

Experiments:
Assay type in all cases: physicochemical; call rule not given here
[1] = Antioxidant activity assessed as inhibition of Fe2+/ascorbic acid-induced linoleic acid peroxidation at 1 uM by spectrophotometry relative to control; design: scale not given: the % may be the effect or the level left
[2] = Antioxidant activity assessed as […] scavenging activity by measuring NaNO2 at 100 uM by spectrophotometry
[3] = Antioxidant activity assessed as […] scavenging activity by measuring NaNO2 at 500 uM by spectrophotometry
[4] = Antioxidant activity assessed as inhibition of Fe2+/ascorbic acid-induced linoleic acid peroxidation at 5 uM by spectrophotometry relative to control; design: scale not given: the % may be the effect or the level left
[5] = Antioxidant activity assessed as DPPH radical scavenging activity at 10 uM by spectrophotometry relative to control
[6] = Antioxidant activity assessed as […] scavenging activity by measuring NaNO2 at 10 uM by spectrophotometry
[7] = Antioxidant activity assessed as ABTS radical scavenging activity at 10 uM by spectrophotometry relative to control
[8] = Antioxidant activity assessed as inhibition of Fe2+/ascorbic acid-induced linoleic acid peroxidation at 50 uM by spectrophotometry relative to control; design: scale not given: the % may be the effect or the level left
[9] = Antioxidant activity assessed as inhibition of Fe2+/ascorbic acid-induced linoleic acid peroxidation at 100 uM by spectrophotometry relative to control; design: scale not given: the % may be the effect or the level left
[10] = Antioxidant activity assessed as […] scavenging activity by measuring NaNO2 at 50 uM by spectrophotometry
[11] = Antioxidant activity assessed as DPPH radical scavenging activity at 50 uM by spectrophotometry relative to control
[12] = Antioxidant activity assessed as inhibition of Fe2+/ascorbic acid-induced linoleic acid peroxidation at 10 uM by spectrophotometry relative to control; design: scale not given: the % may be the effect or the level left
[13] = Antioxidant activity assessed as hydroxyl radical scavenging activity
[14] = Antioxidant activity assessed as inhibition of Fe2+/ascorbic acid-induced linoleic acid peroxidation at 500 uM by spectrophotometry relative to control; design: scale not given: the % may be the effect or the level left
[15] = Antioxidant activity assessed as ABTS radical scavenging activity at 100 uM by spectrophotometry relative to control
[16] = Antioxidant activity assessed as ABTS radical scavenging activity at 25 uM by spectrophotometry relative to control
[17] = Antioxidant activity assessed as ferric ion reducing activity at 10 to 500 uM after 40 mins by spectrophotometry relative to control
[18] = Antioxidant activity assessed as ABTS radical scavenging activity at 50 uM by spectrophotometry relative to control
[19] = Antioxidant activity assessed as ABTS radical scavenging activity at 500 uM by spectrophotometry relative to control
[20] = Antioxidant activity assessed as DPPH radical scavenging activity at 100 uM by spectrophotometry relative to control
[21] = Antioxidant activity assessed as DPPH radical scavenging activity at 500 uM by spectrophotometry relative to control
[22] = Antioxidant activity assessed as ABTS radical scavenging activity at 5 uM by spectrophotometry relative to control
[23] = Antioxidant activity assessed as superoxide dismutase-like activity
[24] = Antioxidant activity assessed as inhibition of Fe2+/ascorbic acid-induced linoleic acid peroxidation by spectrophotometry relative to control
[25] = Antioxidant activity assessed as ABTS radical scavenging activity by spectrophotometry relative to control
[26] = Antioxidant activity assessed as ABTS radical scavenging activity at 1 uM by spectrophotometry relative to control
[27] = Antioxidant activity assessed as DPPH radical scavenging activity by spectrophotometry relative to control

Structure (SMILES)	Activity [1]	Activity [2]	Activity [3]	Activity [4]	Activity [5]	Activity [6]	Activity [7]	Activity [8]	Activity [9]	Activity [10]	Activity [11]	Activity [12]	Activity [13]	Activity [14]	Activity [15]	Activity [16]	Activity [17]	Activity [18]	Activity [19]	Activity [20]	also measured
CC1(C)OCC(C[Se]c2ccccc2)O1 (stereo not given)	88.37%	51.95 µM	49.65 µM	94.34%	0.98%	54.43 µM	0%	89.97%	86.55%	52.5 µM	0.63%	86.97%	Not Active	81.22%	1.15%	0%	Not Active	1.19%	4.75%	0.63%	Activity [21]: 1.3%
CC1(C)OCC(CSc2ccccc2)O1 (stereo not given)	86.7%	50.48 µM	49.68 µM	87.79%	0.01%	49.59 µM	0.47%	76.51%	74.88%	50.91 µM	1.07%	76.51%	Not Active	72.46%	0.36%	0%	Not Active	0.15%	0.08%	0.5%	Activity [21]: 1.65%
CC1(C)OCC(CO)O1 (stereo not given)	72.67%	52.22 µM	54.47 µM	66.2%	0.54%	56.6 µM	0%	72.35%	72.48%	55.45 µM	0.98%	79.89%	Not Active	76.4%	1.7%	0%	Not Active	0.85%	9.84%	0.98%	Activity [21]: 0.98%
CC1(C)OCC(C[Te]c2ccccc2)O1 (stereo not given)	79.46%	54.93 µM	44.49 µM	66.29%	3.57%	64.13 µM	22.72%	43.34%	31.66%	55.95 µM	11.08%	57.39%	Not Active	20.6%	99.5%	53.41%	Active	90.64%	99.9%	22.55%	Activity [22]: 12.04%; Activity [23]: Not Active; IC50 [24]: 24.5 µM; IC50 [25]: 24.5 µM; Activity [26]: 2.18%; IC50 [27]: 309 µM; Activity [21]: 77.86%
